Tested on: A2780 cells
Experiment: In-vitro cell proliferation assay (SRB, 72 hours)
Type: cell-based
Settings: Homo sapiens, A2780, 72 h, A2780 cells, 72 hours, SRB; read-out: Cell Proliferation (IC50)

SMILES	IC50 [nM]
Cc1ccc(C(=O)N2CCC3(CC2)CC3CNC(=O)c2cc3ccncc3o2)cn1 (stereo not drawn) [Example 233, N-[[6-(6-methylpyridine-3-carbonyl)-6-azaspiro[2.5]octan-2-yl]methyl]furo[2,3-c]pyridine-2-carboxamide]	288
Cc1ccnc(C(=O)N2CCC3(CC2)CC3CNC(=O)c2cc3ccncc3o2)c1 (stereo not drawn) [Example 235, N-[[6-(4-methylpyridine-2-carbonyl)-6-azaspiro[2.5]octan-2-yl]methyl]furo[2,3-c]pyridine-2-carboxamide]	1560
O=C(NCC1CC12CCN(C(=O)c1cc3cccn3cn1)CC2)c1cc2ccncc2o1 (stereo not drawn) [Example 237, N-[[6-(pyrrolo[1,2-c]pyrimidine-3-carbonyl)-6-azaspiro[2.5]octan-2-yl]methyl]furo[2,3-c]pyridine-2-carboxamide]	166
O=C(NCC1CC12CCN(C(=O)c1ccc3[nH]nnc3c1)CC2)c1cc2ccncc2o1 (stereo not drawn) [Example 238, N-[[6-(1H-benzotriazole-5-carbonyl)-6-azaspiro[2.5]octan-2-yl]methyl]furo[2,3-c]pyridine-2-carboxamide]	910
N#Cc1ccc(C(=O)N2CCC3(CC2)CC3CNC(=O)c2cc3ccncc3o2)cc1 (stereo not drawn) [Example 242, N-[[6-(4-cyanobenzoyl)-6-azaspiro[2.5]octan-2-yl]methyl]furo[2,3-c]pyridine-2-carboxamide]	713
N#Cc1cccc(C(=O)N2CCC3(CC2)CC3CNC(=O)c2cc3ccncc3o2)c1 (stereo not drawn) [Example 243, N-[[6-(3-cyanobenzoyl)-6-azaspiro[2.5]octan-2-yl]methyl]furo[2,3-c]pyridine-2-carboxamide]	434
O=C(NCC1CC12CCN(C(=O)c1ccc(OC(F)(F)F)cc1)CC2)c1cc2ccncc2o1 (stereo not drawn) [Example 247, N-[[6-[4-(trifluoromethoxy)benzoyl]-6-azaspiro[2.5]octan-2-yl]methyl]furo[2,3-c]pyridine-2-carboxamide]	2000
O=C(NCC1CC12CCN(C(=O)c1cccc(Cn3cncn3)c1)CC2)c1cc2ccncc2o1 (stereo not drawn) [Example 249, N-[[6-[3-(1,2,4-triazol-1-ylmethyl)benzoyl]-6-azaspiro[2.5]octan-2-yl]methyl]furo[2,3-c]pyridine-2-carboxamide]	935
O=C(NCC1CC12CCN(C(=O)c1ccccc1Cn1cncn1)CC2)c1cc2ccncc2o1 (stereo not drawn) [Example 250, N-[[6-[2-(1,2,4-triazol-1-ylmethyl)benzoyl]-6-azaspiro[2.5]octan-2-yl]methyl]furo[2,3-c]pyridine-2-carboxamide]	2000
O=C(NCC1CC12CCN(C(=O)c1ccc(Cn3cncn3)cc1)CC2)c1cc2ccncc2o1 (stereo not drawn) [Example 251, N-[[6-[4-(1,2,4-triazol-1-ylmethyl)benzoyl]-6-azaspiro[2.5]octan-2-yl]methyl]furo[2,3-c]pyridine-2-carboxamide]	215
O=C(NCC1CC12CCN(C(=O)c1cccc(Cn3ccnc3)c1)CC2)c1cc2ccncc2o1 (stereo not drawn) [Example 252, N-[[6-[3-(imidazol-1-ylmethyl)benzoyl]-6-azaspiro[2.5]octan-2-yl]methyl]furo[2,3-c]pyridine-2-carboxamide]	344
O=C(NCC1CC12CCN(C(=O)c1ccc(-n3ccnc3)nc1)CC2)c1cc2ccncc2o1 (stereo not drawn) [Example 255, N-[[6-(6-imidazol-1-ylpyridine-3-carbonyl)-6-azaspiro[2.5]octan-2-yl]methyl]furo[2,3-c]pyndine-2-carboxamide]	179
O=C(NCC1CC12CCN(C(=O)c1cc(C(F)(F)F)ccn1)CC2)c1cc2ccncc2o1 (stereo not drawn) [Example 256, N-[[6-[4-(trifluoromethyl]pyridine-2-carbonyl]6-azaspiro[2.5]octan-2-yl]methyl]furo[2,3-c]pyridine-2-carboxamide]	596
O=C(NCC1CC12CCN(C(=O)c1ccc(C(F)(F)F)nc1)CC2)c1cc2ccncc2o1 (stereo not drawn) [Example 257, N-[[6-[6-(trifluoromethyl]pyndine-3-carbonyl]-6-azaspiro[2.5]octan-2-yl]methyl]furo[2,3-c]pyridine-2-carboxamide]	2000
NS(=O)(=O)c1ccc(C(=O)N2CCC3(CC2)CC3CNC(=O)c2cc3ccncc3o2)cc1 (stereo not drawn) [Example 259, N-[[6-(4-sulfamoylbenzoyl)-6-azaspiro[2.5]octan-2-yl]methyl]furo[2,3-c]pyridine-2-carboxamide]	1200
O=C(NCC1CC12CCN(C(=O)c1ccccc1Cn1ccnc1)CC2)c1cc2ccncc2o1 (stereo not drawn) [Example 260, N-[[6-(2-(imidazol-1-ylmethyl)benzoyl]-6-azaspito[2.5]octan-2-yl]methyl]furo[2,3-c]pyridine-2-carboxamide]	2000
O=C(NCC1CC12CCN(C(=O)c1ccc3cnccc3n1)CC2)c1cc2ccncc2o1 (stereo not drawn) [Example 262, N-[[6-(1,6-naphthyridine-2-carbonyl)-6-azaspiro[2.5]octan-2-yl]methyl]furo[2,3-c]pyridine-2-carboxamide]	79.5
CC(=O)Nc1cccc(C(=O)N2CCC3(CC2)CC3CNC(=O)c2cc3ccncc3o2)c1 (stereo not drawn) [Example 264, N-[[6-(3-acetamidobenzoyl)-6-azaspiro[2.5]octan-2-yl]methyl]furo[2,3-c]pyridine-2-carboxamide]	245
CC(=O)Nc1cnccc1C(=O)N1CCC2(CC1)CC2CNC(=O)c1cc2ccncc2o1 (stereo not drawn) [Example 265, N-[[6-(3-acetamidopyridine-4-carbonyl)-6-azaspiro[2.5]octan-2-yl]methyl]furo[2,3-c]pyridine-2-carboxamide]	2000
O=C(NCC1CC12CCN(C(=O)c1ccc3nonc3c1)CC2)c1cc2ccncc2o1 (stereo not drawn) [Example 266, N-[[6-(2,1,3-benzoxadiazole-5-carbonyl)-6-azaspiro[2.5]octan-2-yl]methyl]furo[2,3-c]pyridine-2-carboxamide]	1470
O=C(NCC1CC12CCN(C(=O)c1ccnc3ncccc13)CC2)c1cc2ccncc2o1 (stereo not drawn) [Example 267, N-[[6-(1,8-naphthyridine-4-carbonyl)-6-azaspiro[2.5]octan-2-yl]methyl]furo[2,3-c]pyridine-2-carboxamide]	2000
O=C(NCC1CC12CCN(C(=O)c1ccc3cccnc3n1)CC2)c1cc2ccncc2o1 (stereo not drawn) [Example 271, N-[[6-(1,8-naphthyridine-2-carbonyl)-6-azaspiro[2.5]octan-2-yl]methyl]furo[2,3-c]pyridine-2-carboxamide]	139
O=C(NCC1CC12CCN(C(=O)c1ccno1)CC2)c1cc2ccncc2o1 (stereo not drawn) [Example 272, N-[[6-(isoxazole-5-carbonyl)-6-azaspiro[2.5]octan-2-yl]methyl]furo[2,3-c]pyridine-2-carboxamide]	2000
CC(C)CC(=O)N1CCC2(CC1)CC2CNC(=O)c1cc2ccncc2o1 (stereo not drawn) [Example 273, N-[[6-(3-methylbutanoyl)-6-azaspiro[2.5]octan-2-yl]methyl]furo[2,3-c]pyridine-2-carboxamide]	207

These reach a lower IC50. Values come first.

IC50 [nM]	SMILES
70.2	O=C(NCC1CC12CCN(C(=O)c1ccc3[nH]cnc3c1)CC2)c1cc2ccncc2o1 (stereo not drawn) [Example 241, N-[[6-(1H-benzimidazole-5-carbonyl)-6-azaspiro[2.5]octan-2-yl]methyl]furo[2,3-c]pyridine-2-carboxamide]
55.4	O=C(NCC1CC12CCN(C(=O)c1ccc(-n3ccnc3)cc1)CC2)c1cc2ccncc2o1 (stereo not drawn) [Example 253, N-[[6-(4-imidazol-1-ylbenzoy)-6-azaspiro[2.5]octan-2-yl]methyl]furo[2,3-c]pyridine-2-carboxamide]
47.3	O=C(NCC1CC12CCN(C(=O)c1cccc3[nH]cnc13)CC2)c1cc2ccncc2o1 (stereo not drawn) [Example 236, N-[[6-(1H-benzimidazole-4-carbonyl)-6-azaspiro[2.5]octan-2-yl]methyl]furo[2,3-c]pyridine-2-carboxamide]
29.7	O=C(NCC1CC12CCN(C(=O)c1ccnc3[nH]ccc13)CC2)c1cc2ccncc2o1 (stereo not drawn) [Example 239, N-[[6-(1H-pyrrolo[2,3-b]pyridine-4-carbonyl)-6-azaspiro[2.5]octan-2-yl]methyl]furo[2,3-c]pyridine-2-carboxamide]
20.3	O=C1COc2ccc(C(=O)N3CCC4(CC3)CC4CNC(=O)c3cc4ccncc4o3)cc2N1 (stereo not drawn) [Example 258, N-[[6-(3-oxo-4H-1,4-benzoxazine-6-carbonyl)-6-azaspiro[2.5]octan-2-yl]methyl]furo[2,3-c]pyridine-2-carboxamide]
18.7	O=C(NCC1CC12CCN(C(=O)c1cccc3[nH]ncc13)CC2)c1cc2ccncc2o1 (stereo not drawn) [Example 240, N-[[6-(1H-indazole-4-carbonyl)-6-azaspiro[2.5]octan-2-yl]methyl]furo[2,3-c]pyridine-2-carboxamide]
16	O=C(NCC1CC12CCN(C(=O)c1cnc3ccccc3n1)CC2)c1cc2ccncc2o1 (stereo not drawn) [Example 269]
15.8	O=C(NCC1CC12CCN(C(=O)c1ccc3nccnc3c1)CC2)c1cc2ccncc2o1 (stereo not drawn) [Example 261, N-[[6-(quinoxaline-6-carbonyl)-6-azaspiro[2.5]octan-2-yl]methyl]furo[2,3-c]pyridine-2-carboxamide]
13.8	Cc1nccn1Cc1ccc(C(=O)N2CCC3(CC2)CC3CNC(=O)c2cc3ccncc3o2)cc1 (stereo not drawn) [Example 246, N-[[6-[4-[(2-methylimidazol-1-yl)methyl]benzoyl]-6-azaspiro[2.5]octan-2-yl]methyl]furo[2,3-c]pyridine-2-carboxamide]
13	O=C(NCC1CC12CCN(C(=O)c1ccc(-c3ncn[nH]3)cc1)CC2)c1cc2ccncc2o1 (stereo not drawn) [Example 254, N-[[6-(4-(1H-1,2,4-triazol-5-yl)benzoyl]-6-azaspiro[2.5]octan-2-yl]methyl]furo[2,3-c]pyridine-2-carboxamide]
12.6	O=C(NCC1CC12CCN(C(=O)c1ccc(CN3CCOCC3)cc1)CC2)c1cc2ccncc2o1 (stereo not drawn) [Example 245, N-[[6-[4-(morpholinomcthyl)benzoyl]-6-azaspiro[2.5]octan-2-yl]methyl]furo[2,3-c]pyridine-2-carboxamide]
4.39	O=C(NCC1CC12CCN(C(=O)c1ccc(CN3CCCC3)cc1)CC2)c1cc2ccncc2o1 (stereo not drawn) [Example 248, N-[[6-[4-(pyrrolidin-1-ylmethyl)benzoyl]-6-azaspiro[2.5]octan-2-yl]methyl]furo[2,3-c]pyridine-2-carboxamide]

— patent US10730889B2, “Amido spirocyclic amide and sulfonamide derivatives” (Forma TM, LLC, priority 2012, dated 2020)
